Ends that are not written are not given here.
Assays:
IGF1 receptor = IGF1 receptor (Homo sapiens, UniProt P08069); experiment: Competition binding assay with 125I-labeled cognate ligand, IGF1 receptor; conditions: 125I-labeled ligand, affinity too low to be measured
Procedure: (§1) To test the selectivity of PIRA S661 for the insulin receptor versus a related receptor, the IGF1 receptor, competition binding assays were carried out using both receptors and their cognate ligands in ^125I-labeled form.

Zucker Obese rats [1] = experiment: Glucose profile after i.v. S661 at different doses followed by i.p. human insulin; assay type: in vivo, rat
Procedure: FIG. 2. Glucose profile in Zucker obese (ZO) male rats after intravenous (i.v.) administration of different doses of peptidic insulin receptor antagonist S661, followed by intraperitoneal (i.p.) administration of human insulin.
Nine groups of 5 or 6 male, 16 week old Zucker Obese rats (Charles River) with an average weight of about 580 gram were kept on ad lib Purina 5008 and ad lib drinking water and fasted overnight for the experiment. The glucose level was tested at 20 minutes and 10 minutes prior to administration of the PIRA designated S661 (described above) Intravenous (i.v.) administration of different doses of S661 in PBS or vehicle was followed by (10 minutes after administration of S661) intraperitoneal (i.p.) administration of different amounts of human insulin in PBS or vehicle. Blood glucose levels were measured at 10, 20, 30, 40, 60, 80, 120, and 180 minutes after injection of insulin.

insulin receptor = insulin receptor (Homo sapiens, UniProt P06213); experiment: Competition binding assay with 125I-labeled cognate ligand, insulin receptor; conditions: 125I-labeled ligand
Procedure: as §1

Zucker Obese rats [2] = experiment: Glucose profile after i.v. S661 followed after different times by i.p. human insulin; assay type: in vivo, rat; conditions: 30 nmol/kg S661 i.v. at various times before 30 nmol/kg human insulin i.p., FIG. 3
Procedure: FIG. 3. Glucose profile in ZO rats after i.v. administration of Insulin Receptor Antagonist, S661, followed after different times by i.p. administration of human insulin.
Eight groups of 5 to 7 male, 15 week old Zucker Obese rats (Charles River) with an average weight of about 550 gram were kept on ad lib Purina 5008 and ad lib drinking water and fasted overnight for the experiment. PIRA S661 in PBS was administered i.v. at 30 nmol/kg at various times before the i.p. administration of 30 nmol/kg human insulin in PBS.

SGBS cells = experiment: PIRA antagonist assay: insulin stimulated 14C-glucose uptake; assay type: cell-based; conditions: SGBS cells (human adipocyte cell line); FIG. 1
Procedure: In order to identify an insulin receptor binding peptide as an antagonist (PIRA), a candidate peptide can be tested in a glucose uptake assay in e.g. SGBS cells (a human adipocyte cell line) or primary rodent adipocytes. Briefly, the cells are incubated with various concentrations of insulin and subsequently ^14C-glucose uptake is measured. To test a peptide for antagonist properties, a submaximally stimulating concentration of insulin (e.g., resulting in half maximal insulin response) is added and also a dilution series of the peptide to be tested. If the peptide is a PIRA, the insulin induced response is reduced to or below the baseline response with increasing concentration of PIRA and the potency of the PIRA can be estimated from the concentration of PIRA necessary to observe the reduction in response.

[3] = 3 nmol/kg S661 i.v., 30 nmol/kg insulin i.p., Zucker Obese rats

Substance: GSLDESFYDWFERQLGGGSGGSSLEEEWAQIQCEVWGRGCPSY-amide (GSLDESFYDWFERQLGGGSGGSSLEEEWAQIQCEVWGRGCPSY-NH2; cysteine pairing not given here) [S661, peptidic insulin receptor antagonist]
- affinity for the IGF1 receptor relative to IGF1 (IGF1 receptor): at least 200.000 fold lower than that of IGF1
- glucose levels as compared to control (Zucker Obese rats [1]; [3]): slightly higher
- glucose levels as compared to insulin alone (Zucker Obese rats [1]; [3]): significantly higher levels
- blood glucose levels versus insulin alone or only vehicle (Zucker Obese rats [1]; male Zucker Obese rats, fasted, S661 i.v. 10 minutes before i.p. human insulin, FIG. 2): significantly higher
- affinity for the insulin receptor relative to human insulin (insulin receptor): 48 % of that of human insulin
- time after administration at which still an effective antagonist (blood glucose) (Zucker Obese rats [2]): ≥ 6 h
- effect on submaximally insulin stimulated glucose uptake (SGBS cells): inhibition of submaximally insulin stimulated glucose uptake
